{
  "source": "patent US8178091B2",
  "about": "“Compositions and methods for the treatment of respiratory disorders” (University of Washington, priority 2007, dated 2012)",
  "key": {"human IGF-1R mRNA": {"tested_on": "human IGF-1R mRNA", "settings": "cited from earlier work"}, "IGF-1R-positive tumors": {"tested_on": "IGF-1R-positive tumors", "settings": "mice; cited from earlier work"}, "[1]": {"settings": "rats; cited from earlier work"}, "IR [2]": {"biological_target": "IR (Homo sapiens, UniProt P06213)", "sequence (P06213 28-1382)": "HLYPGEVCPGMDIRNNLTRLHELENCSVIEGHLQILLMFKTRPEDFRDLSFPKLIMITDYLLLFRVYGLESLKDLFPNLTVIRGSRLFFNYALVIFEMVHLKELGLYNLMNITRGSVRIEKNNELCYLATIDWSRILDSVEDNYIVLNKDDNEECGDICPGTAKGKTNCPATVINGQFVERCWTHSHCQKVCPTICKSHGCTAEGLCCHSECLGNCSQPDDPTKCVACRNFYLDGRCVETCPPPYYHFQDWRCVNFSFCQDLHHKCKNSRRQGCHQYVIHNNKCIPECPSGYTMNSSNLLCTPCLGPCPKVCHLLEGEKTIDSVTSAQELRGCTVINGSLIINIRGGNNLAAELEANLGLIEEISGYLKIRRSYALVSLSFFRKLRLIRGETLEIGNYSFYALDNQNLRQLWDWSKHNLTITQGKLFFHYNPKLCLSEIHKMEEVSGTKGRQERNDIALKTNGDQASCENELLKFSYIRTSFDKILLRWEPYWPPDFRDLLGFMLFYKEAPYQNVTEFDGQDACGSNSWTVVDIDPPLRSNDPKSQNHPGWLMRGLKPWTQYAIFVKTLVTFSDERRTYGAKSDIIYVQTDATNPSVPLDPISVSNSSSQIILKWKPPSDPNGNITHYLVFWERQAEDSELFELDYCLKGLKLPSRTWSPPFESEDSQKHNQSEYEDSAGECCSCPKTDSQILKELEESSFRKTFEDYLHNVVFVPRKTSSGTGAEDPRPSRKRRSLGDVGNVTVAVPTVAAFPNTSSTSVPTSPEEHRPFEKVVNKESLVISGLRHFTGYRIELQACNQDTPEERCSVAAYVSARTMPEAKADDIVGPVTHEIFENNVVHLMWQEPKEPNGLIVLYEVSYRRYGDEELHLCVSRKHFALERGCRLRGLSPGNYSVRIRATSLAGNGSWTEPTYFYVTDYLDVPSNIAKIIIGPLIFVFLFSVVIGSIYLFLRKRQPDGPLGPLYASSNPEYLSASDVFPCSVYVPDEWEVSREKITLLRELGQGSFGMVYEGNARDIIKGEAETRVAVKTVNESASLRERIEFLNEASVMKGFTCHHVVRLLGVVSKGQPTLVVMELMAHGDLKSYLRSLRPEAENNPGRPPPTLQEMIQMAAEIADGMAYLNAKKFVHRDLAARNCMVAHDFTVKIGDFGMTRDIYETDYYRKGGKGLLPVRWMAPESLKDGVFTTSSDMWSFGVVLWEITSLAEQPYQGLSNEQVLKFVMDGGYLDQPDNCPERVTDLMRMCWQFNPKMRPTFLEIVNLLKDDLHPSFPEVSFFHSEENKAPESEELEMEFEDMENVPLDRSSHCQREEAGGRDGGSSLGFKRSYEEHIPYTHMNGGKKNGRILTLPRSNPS", "settings": "even at high concentrations; cited from earlier work"}, "IGF-1R [3]": {"biological_target": "T1, IGF-1R (Homo sapiens, UniProt P08069)", "T1 sequence (P08069 31-1367, species assumed)": "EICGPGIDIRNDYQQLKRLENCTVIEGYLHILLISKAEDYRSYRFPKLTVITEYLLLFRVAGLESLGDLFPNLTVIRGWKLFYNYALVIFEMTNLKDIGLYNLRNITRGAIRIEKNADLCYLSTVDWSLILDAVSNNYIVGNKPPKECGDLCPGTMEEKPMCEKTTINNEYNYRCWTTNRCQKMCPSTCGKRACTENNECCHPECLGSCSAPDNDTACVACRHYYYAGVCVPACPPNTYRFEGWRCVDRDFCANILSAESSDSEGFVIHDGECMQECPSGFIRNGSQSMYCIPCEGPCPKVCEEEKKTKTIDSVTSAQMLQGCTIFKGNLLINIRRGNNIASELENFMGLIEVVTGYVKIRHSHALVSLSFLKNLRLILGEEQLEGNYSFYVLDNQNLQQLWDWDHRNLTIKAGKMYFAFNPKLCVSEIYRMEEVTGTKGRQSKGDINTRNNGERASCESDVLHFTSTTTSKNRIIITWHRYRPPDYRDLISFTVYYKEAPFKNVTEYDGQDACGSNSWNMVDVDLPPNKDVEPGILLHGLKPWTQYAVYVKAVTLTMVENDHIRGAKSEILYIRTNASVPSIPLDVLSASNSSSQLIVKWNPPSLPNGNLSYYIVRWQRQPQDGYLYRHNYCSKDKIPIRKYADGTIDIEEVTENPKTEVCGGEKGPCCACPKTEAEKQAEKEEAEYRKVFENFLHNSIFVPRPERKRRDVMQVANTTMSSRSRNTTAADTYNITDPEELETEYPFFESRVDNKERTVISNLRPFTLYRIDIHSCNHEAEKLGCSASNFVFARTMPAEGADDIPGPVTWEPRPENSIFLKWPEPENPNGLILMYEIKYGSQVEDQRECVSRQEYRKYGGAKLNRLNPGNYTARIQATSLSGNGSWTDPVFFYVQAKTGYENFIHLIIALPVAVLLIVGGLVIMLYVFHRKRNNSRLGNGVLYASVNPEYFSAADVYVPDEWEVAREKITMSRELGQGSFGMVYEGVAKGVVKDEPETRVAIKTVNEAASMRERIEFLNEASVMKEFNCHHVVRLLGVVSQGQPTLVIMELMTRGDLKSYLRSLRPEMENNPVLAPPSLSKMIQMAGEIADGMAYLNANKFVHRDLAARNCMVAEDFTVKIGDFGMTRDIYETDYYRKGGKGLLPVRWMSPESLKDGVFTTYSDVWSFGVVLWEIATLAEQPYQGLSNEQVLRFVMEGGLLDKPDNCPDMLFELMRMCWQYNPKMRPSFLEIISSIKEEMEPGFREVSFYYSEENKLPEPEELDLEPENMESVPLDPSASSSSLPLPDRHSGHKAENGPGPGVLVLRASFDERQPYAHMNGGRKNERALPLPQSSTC", "settings": "cited from earlier work"}, "β-tubulin": {"tested_on": "β-tubulin", "settings": "interaction with β-tubulin, mitotic arrest; cited from earlier work"}, "mouse lung fibroblasts": {"tested_on": "mouse lung fibroblasts", "test": "Western blot of signaling in IGF-stimulated lung fibroblasts", "assay_type": "cell-based", "settings": "IGF-1 100 ng/ml", "method": "Tyrosine phosphorylation of receptor tyrosine kinase substrates was evaluated. Mouse lung fibroblasts were serum-starved overnight and then stimulated with IGF-1 (100 ng/ml) for indicated times. Cells were lysed, and proteins separated by SDS-PAGE. Each membrane was blotted with indicated phospho-antibody then stripped and reblotted with antibody to total protein. Substrates include IGF-1R, IRS-1 and IRS-2. The tyrosine phosphorylated forms of the substrates are indicated by pIGF-1R, pIRS-1 and pIRS-2, respectively.\nTyrosine phosphorylation of receptor tyrosine kinase substrates was evaluated. Substrates include AKT, ERK. The tyrosine phosphorylated forms of the substrates are indicated by pAKT, pERK, respectively.\nFor Western Blot analyses, cells were grown to 70% confluence, placed in serum free medium overnight and then IGF-1 (100 ng/ml) was added for 5, 10, 15, 30 and 60 minutes. At indicated time points, cells were washed in ice-cold PBS and lysed in buffer containing 100 mM Tri-HCl (pH 7.4), 150 mM NaCl, 1 mM CaCl2, 0.1% SDS, 1% Triton-X, 0.1% NP-40, 1 mM […] (sodium vanadate), 1 mM NaF (sodium Fluoride) and protease inhibitor cocktail tablet (Roche). Protein concentrations were determined by the BCA assay (Pierce). Equal amounts of protein were separated by sodium dodecyl sulfate-polyacrylamide gel electrophoresis (SDS-PAGE), and electrophoretically transferred to PVDF membrane. Membranes were blocked with 5% nonfat dry milk/0.05% Tween-20/PBS for 2 hours, incubated with primary antibody for 2 hours at room temperature, washed with 0.05% Tween-20/PBS, incubated with horseradish peroxidase-conjugated secondary antibody (1:5000) for 2 h, washed with 0.05% Tween-20/PBS and then developed with enhanced chemiluminescence (ECL) technique (Amersham, England)."}, "[4]": {"tested_on": "primary mouse lung fibroblasts", "test": "proliferation assay (MTT)", "assay_type": "cell-based, C57BL6 mice", "method": "Mouse lung fibroblasts from saline-treated mice (A) or bleomycin-treated mice (B) were plated in triplicate and serum-starved overnight followed by addition of IGF-1 (100 ng/ml), serum-free media (negative control), 10% FBS (positive control), and then incubated for indicated time. Cell proliferation was measured by MTT assay. Data are shown as mean OD570 nm±SD and are average of at least 4 independent experiments.\nFor proliferation assays, primary mouse lung fibroblasts were plated at 10,000 cells/100 μl in 96-well plates. After initial adhesion, medium was changed to serum free overnight and then IGF-1 (100 ng/ml) was added. As a positive control, cells were grown in 10% FBS; as a negative control, cell were grown in serum-free media. Cell proliferation was assayed at 48, 72 or 96 hours by colorimetric methyl thiazolyl tetrazolium (MTT) assay per manufacturer's direction (Qiang et al., Blood 103:301-308 (2004)). Optical density of plates was read on a Spectra Max 250 (Molecular Device, Sunnyvale, Calif.) at 570 nm. All experiments were done in triplicate and repeated three times."}, "[5]": {"tested_on": "primary mouse lung fibroblasts", "test": "migration assay (FluoroBlok transwell)", "assay_type": "cell-based, C57BL6 mice", "method": "Mouse lung fibroblasts were plated FluoroBlok transwell filters overnight, then IGF-1 (100 ng/ml), serum free media (negative control), 10% serum (positive control) was added to lower chamber. Some cells were preincubated with the blocking antibody to IGF-1R (A12, 40 μg/ml) before the addition of IGF-1. Cells were allowed to migrate through membrane for 4 hours @ 37° C. Migrated cells were counted with Fluorescent microscope. Each experiments was done in triplicate and repeated at least three times. Average cell count ±SD are presented.\nFor migration assays, primary mouse lung fibroblasts (50,000 cells/well) were plated in serum-free medium overnight on Fluoroblok transwell filters (8 μm pores, HTS FluoroBlok™ 24-Multiwell Insert System, BD Bioscience, Bedford, Mass.) pre-coated with fibronectin (50 μg/ml). Fluoroblok microporous membranes are specifically designed to detect by fluorescence only cells below the surface membrane. IGF-1 (100 ng/ml), 10% FBS (positive control) or serum-free media (negative control) was added to lower chamber. In some experiments, cells were preincubated with the blocking antibody to IGF-1R (A12, 40 μg/ml), for 1 hour. After 4 hours of migration, filters were fixed with formaldehyde and stained with DAPI (4′6-Diamidine-2′-phenylindole dihydrochloride, Roche, Indianapolis, Ind.). Migrated cells were counted in three predesignated fields for each filter. All experiments were done in triplicate and repeated at least three times."}, "tumors": {"tested_on": "tumors", "settings": "nude mice; cited from earlier work"}, "IGF-1R [6]": {"biological_target": "T1, IGF-1R", "settings": "cited from earlier work", "remark": "listed apart in the source"}, "PDGFR": {"tested_on": "PDGFR", "settings": "intact cells; cited from earlier work"}, "IGF-1R [7]": {"biological_target": "T1, IGF-1R", "settings": "cited from earlier work", "remark": "listed apart in the source"}, "IGF-1R [8]": {"biological_target": "T1, IGF-1R", "settings": "cited from earlier work", "remark": "listed apart in the source"}, "IR [9]": {"tested_on": "IR", "settings": "in vivo; cited from earlier work"}, "[10]": {"tested_on": "primary distal lung human epithelial cells", "test": "apoptosis assay (Cell Death Detection ELISA-plus), lung epithelial cells", "assay_type": "cell-based", "settings": "serum starvation, increasing concentrations", "method": "(§1) A: Normal human lung fibroblast or distal lung epithelial cells were serum-starved overnight and then incubated with indicated concentration of IGF-1R antibody or IGFBP-3 overnight. B: A549 cells were serum-starved and incubated with IGF-1R antibody (136 μg/ml) with or without the indicated concentration of Fas ligand. Apoptosis was measured by Cell Death ELISA-plus ELISA (Roche Applied Science) per the manufacturer's directions. All experiments were done in triplicate and repeated at least twice. Apoptosis index is defined as the ratio of experimental condition OD405 nm: control (media alone) OD405 nm.\n(§2) Primary normal human lung fibroblasts (Clonetics, Cambrex Bioscience, Rockland, Me.), primary distal lung human epithelial cells (Clonetics) or A549 (American Type Culture Collection, Manassas, Va.) were seeded in a 96-well tissue culture plate (2×10^4 cells/well) overnight and serum-starved for 24 hours. […] After 48 hours, apoptosis was measured. To prevent detached cells from being aspirated, plates were centrifuged at 200×g for 10 minutes, and apoptosis was measured using the Cell Death Detection ELISA-plus System (Roche Applied Science, Penzberg, Germany), which detects cytosolic histone-complexed DNA fragments. […]"}, "[11]": {"tested_on": "primary normal human lung fibroblasts", "test": "apoptosis assay (Cell Death Detection ELISA-plus), lung fibroblasts", "assay_type": "cell-based", "settings": "serum starvation, increasing concentrations", "method": "as §1, §2"}, "[12]": {"settings": "oxidation; cited from earlier work"}},
  "note": "Entries after “also recorded” stand apart in the source; their conditions may differ. Like-named read-outs stand apart in the source and are kept apart here.",
  "data": [
    {"compound": "siRNA 1: 5'-GGGACCCUCCUCCGGAGCCAG-3' (antisense; SEQ ID NO: 1) and 5'-GGCUCCGGAGGAGGGUCCCCG-3' (sense; SEQ ID NO: 2) (listed as RNA, chemistry not given here)", "values": [
      {"measurement": "targeting of human IGF-1R mRNA", "setting": "human IGF-1R mRNA", "result": "effective to target human IGF-1R mRNA"}
    ]},
    {"compound": "siRNA 2: 5'-GGUCUUCUCACACAUCGGCUU-3' (antisense; SEQ ID NO: 3) and 5'-GCCGAUGUGUGAGAAGACCUU-3' (sense; SEQ ID NO: 4) (listed as RNA, chemistry not given here)", "values": [
      {"measurement": "targeting of human IGF-1R mRNA", "setting": "human IGF-1R mRNA", "result": "effective to target human IGF-1R mRNA"}
    ]},
    {"compound": "COc1cc([C@@H]2c3cc4c(cc3[C@H](O)[C@H]3COC(=O)[C@@H]23)OCO4)cc(OC)c1OC", "note": "[PPP, picropodophyllin]", "values": [
      {"measurement": "killing IGF-1R-positive tumors", "setting": "IGF-1R-positive tumors", "result": "effective at killing IGF-1R-positive tumors"},
      {"measurement": "LD50", "setting": "[1]", "result": "> 500", "unit": "mg/kg"},
      {"measurement": "effect on IR activity", "setting": "IR [2]", "result": "did not affect IR activity"},
      {"measurement": "IC50 on IGF-1R activity", "setting": "IGF-1R [3]", "result": "sub-micromolar"}
    ]},
    {"compound": "COc1cc([C@@H]2c3cc4c(cc3[C@H](O)[C@H]3COC(=O)[C@H]23)OCO4)cc(OC)c1OC", "note": "[PPT, podophyllotoxin]", "values": [
      {"measurement": "cytotoxicity", "setting": "β-tubulin", "result": "cytotoxic"},
      {"measurement": "effect on IR activity", "setting": "IR [2]", "result": "did not affect IR activity"},
      {"measurement": "IC50 on IGF-1R activity", "setting": "IGF-1R [3]", "result": "sub-micromolar"}
    ]},
    {"compound": "IGF-1: insulin-like growth factor 1, purchased from R&D Systems", "values": [
      {"measurement": "Akt phosphorylation", "setting": "mouse lung fibroblasts", "result": "phosphorylated in response to IGF-1 stimulation by 15 minutes and persisted until 60 minutes"},
      {"measurement": "ERK phosphorylation", "setting": "mouse lung fibroblasts", "result": "did not undergo phosphorylation"},
      {"measurement": "IRS-1 phosphorylation", "setting": "mouse lung fibroblasts", "result": "did not change"},
      {"measurement": "IRS-2 phosphorylation", "setting": "mouse lung fibroblasts", "result": "increased phosphorylation by 10 minutes that persisted until 30 minutes"},
      {"measurement": "time to IGF-1R phosphorylation", "setting": "mouse lung fibroblasts", "result": "≤ 10", "unit": "min"},
      {"measurement": "proliferation of normal mouse lung fibroblasts", "setting": "[4]; IGF-1 50 or 100 ng/ml, serum-free, up to 96 h", "result": "did not increase proliferation; also recorded: increased proliferation was not observed"},
      {"measurement": "proliferation of activated fibroblasts derived from bleomycin-treated mice", "setting": "[4]; data not shown", "result": "can induce proliferation"},
      {"measurement": "increase in migration", "setting": "[5]; IGF-1 100 ng/ml, FIG. 4", "result": 1.8, "unit": "fold"},
      {"measurement": "migration of MLF in response to IGF-1", "setting": "[5]; transwell filter, 4 hours, FIG. 5", "result": "increased migration"}
    ]},
    {"compound": "COc1ccc(Cl)cc1NC(=O)Nc1cc(C)nc2ccccc12", "note": "[PQ401]", "values": [
      {"measurement": "growth rate of tumors", "setting": "tumors", "result": "reduce the growth rate of tumors"}
    ]},
    {"compound": "COc1cccc(-c2cc(=O)c3ccccc3o2)c1N", "note": "[PD98059, reference compound]", "values": [
      {"measurement": "effect on IGF-1-induced migration", "setting": "[5]; IGF-1 100 ng/ml, A12 40 μg/ml preincubation", "result": "partially inhibited"}
    ]},
    {"compound": "N#C/C(=C\\c1ccc2oc(=O)[nH]c2c1)C(=O)c1ccc(O)c(O)c1", "note": "[AGL 2263]", "values": [
      {"measurement": "activity relative to parent compound AG 538 in cell free assays", "setting": "IGF-1R [6]; cell free assays", "result": "somewhat less active"},
      {"measurement": "PKB activation by PDGFR", "setting": "PDGFR", "result": "did not affect"},
      {"measurement": "activity relative to parent compound AG 538 in cell culture assays", "setting": "IGF-1R [7]; cell culture assays", "result": "comparable to the parent compound"},
      {"measurement": "IC50", "setting": "IGF-1R [7]; intact cells, read-out: IC50 inhibiting the activation of PKB in intact cells", "result": 6, "unit": "µM"}
    ]},
    {"compound": "CN1CCN([C@H]2C[C@@H](c3nc(-c4ccc5ccc(-c6ccccc6)nc5c4)c4c(N)nccn43)C2)CC1", "note": "[cis-3-[3-(4-methyl-piperazin-1-yl)-cyclobutyl]-1-(2-phenyl-quinolin-7-yl)-imidazo[1,5-a]pyrazin-8-ylamine]", "values": [
      {"measurement": "IGF-1R activity in vivo", "setting": "IGF-1R [8]", "result": "inhibit IGF-1R activity in vivo"},
      {"measurement": "rise in blood sugar", "setting": "IR [9]", "result": "without causing any substantial rise in blood sugar"}
    ]},
    {"compound": "IGFBP-3: insulin-like growth factor-binding protein-3 (R&D Systems)", "values": [
      {"measurement": "apoptosis of primary lung epithelial cells", "setting": "[10]", "result": "increased apoptosis was not observed"},
      {"measurement": "apoptosis of primary human lung fibroblasts", "setting": "[11]", "result": "increased apoptosis was not observed"}
    ]},
    {"compound": "N#C/C(=C\\c1ccc(O)c(O)c1)C(=O)c1ccc(O)c(O)c1", "note": "[AG 538]", "values": [
      {"measurement": "stability of catechol moiety", "setting": "[12]", "result": "unstable due to its vulnerability to oxidation"},
      {"measurement": "IC50", "setting": "IGF-1R [6]; cell free kinase assay, read-out: IC50 inhibition of IGF-1R", "result": 0.061, "unit": "µM"},
      {"measurement": "receptor autophosphorylation and activation of downstream targets PKB and Erk2", "setting": "IGF-1R [7]; cultured cells", "result": "inhibits receptor autophosphorylation"}
    ]}
  ]
}
